Test results: patent US11013235B2 (priority 2015, dated 2021)
Like-named read-outs stand apart in the source and are kept apart here.

Assays:
Type in all cases: in vivo
Rhizoctonia solani [1] = test: Control of Rhizoctonia solani disease in tobacco (Rs-Nt); conditions: 1 μM spraying every 24 hours for one week, water control 87
[2] = tested on: Candidatus 'Liberibacter asiaticus'; conditions: spraying every 15 days, 12 months after treatment, Citrus sinensis with HLB
Alternaria solani = test: Control of Alternaria solani disease in tomato (As-SI); conditions: 1 μM spraying every 24 hours for one week, water control 68
Method in brief: (§1)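 Each group of fifty plants is inoculated with the pathogen and afterwards sprayed with 1 μM compound once every 24 hours over one week. Water-sprayed plants serve as the control. Disease is scored as mortality (Nocardia), symptomatic leaf percentage (Alternaria) or lesion size by diameter (Botrytis).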

Pratylenchus coffeae = test: Nematode control, nodules per plant: Pratylenchus coffeae; conditions: 1 μM foliar application every 5 days, evaluation 35 days after, control 42
Method in brief: (§2)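 Each compound was dissolved in ethanol, then diluted with water to 1 μM. Only the leaves were sprayed, with applications repeated every 5 days on ten plants per treatment. After 35 days, nodules per plant were quantified.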

Radopholus similis = test: Nematode control, nodules per plant: Radopholus similis; conditions: 1 μM foliar application every 5 days, evaluation 35 days after, control 45
Method in brief: as §2

Phytophthora parasitica = test: Control of Phytophthora parasitica disease in tobacco (Pp-Nt); conditions: 1 μM spraying every 24 hours for one week, water control 91
Rhizoctonia solani [3] = test: Control of Rhizoctonia solani disease in tomato (Rs-SI); conditions: 1 μM spraying every 24 hours for one week, water control 96
Meloidogyne incognita = test: Nematode control, nodules per plant: Meloidogyne incognita; conditions: 1 μM foliar application every 5 days, evaluation 35 days after, control 34
Method in brief: as §2

Botrytis cinerea [4] = test: Control of Botrytis cinerea disease in tobacco (Bc-Nt); conditions: 1 μM spraying every 24 hours for one week, water control 6.7
Method in brief: as §1

Botrytis cinerea [5] = test: Control of Botrytis cinerea disease in tomato (Bc-SI); conditions: 1 μM spraying every 24 hours for one week, water control 7.4
Method in brief: as §1

Botrytis cinerea [6] = test: Control of Botrytis cinerea disease in Arabidopsis (Bc-At); conditions: 1 μM spraying every 24 hours for one week, water control 8.7
Method in brief: as §1

Nocardia sp = test: Control of Nocardia sp disease in tobacco (N-Nt); conditions: 1 μM spraying every 24 hours for one week, water control 58
Method in brief: as §1

Row | SMILES | Rs-Nt: percentage of mortality (Rhizoctonia solani [1]) | Titers of the bacterium ([2]; 0.001 μM) | Titers of the bacterium ([2]; 0.01 μM) | Titers of the bacterium ([2]; 1 μM) | Titers of the bacterium ([2]; 5 μM) | Titers of the bacterium ([2]; 10 μM) | As-SI: percentage of leaves with the disease symptoms (Alternaria solani) | Pc: number of nodules per plant (Pratylenchus coffeae) | Rs: number of nodules per plant (Radopholus similis) | Pp-Nt: percentage of mortality (Phytophthora parasitica) | Rs-SI: percentage of mortality (Rhizoctonia solani [3]) | Mi: number of nodules per plant (Meloidogyne incognita) | Bc-Nt: mean of the diameter of the lesion (Botrytis cinerea [4]) | Bc-SI: mean of the diameter of the lesion (Botrytis cinerea [5]) | Bc-At: mean of the diameter of the lesion (Botrytis cinerea [6]) | N-Nt: percentage of mortality (Nocardia sp)
1 | CC(O)C(O)CN1CCC(Oc2ccc(C(=O)N3CCC(c4ccccc4)C3)cc2)CC1 (stereo not drawn) [IVD, 1-(4-{4-[(3-phenylpyrrolidin-1-yl)carbonyl]phenoxy}piperidin-1-yl)butane-2,3-diol] | 3% | 587 copies per reaction | 0 copies per reaction | 0 copies per reaction | 87 copies per reaction | 2368 copies per reaction | 2% | 15 | 2 | 2% | 2% | 3 | 2.0 mm | 1.6 mm | 1.1 mm | 1%
2 | O=C(CC1COc2ccc(C(=O)NC3CCCC3)cc2N1)NC(CO)CO (stereo not drawn) [VG, N-cyclopentyl-3-{[(1,3-dihydroxypropan-2-yl)carbamoyl]methyl}-3,4-dihydro-2H-1,4-benzoxazine-6-carboxamide] | 2% | 657 copies per reaction | 8 copies per reaction | 0 copies per reaction | 67 copies per reaction | 3654 copies per reaction | 1% | 1 | 1 | 1% | 3% | 2 | 1.5 mm | 0.8 mm | 2.4 mm | 1%
3 | Cc1c(CCC(=O)NCC(O)CO)c(=O)oc2cc3occ(-c4ccc5ccccc5c4)c3cc12 (stereo not drawn) [IL, N-(2,3-dihydroxypropyl)-3-[4-methyl-6-(naphthalen-2-yl)-2-oxo-2H-furo[3,2-g]chromen-3-yl]propanamide] | 0% | 578 copies per reaction | 0 copies per reaction | 0 copies per reaction | 78 copies per reaction | 3574 copies per reaction | 7% | 0 | 0 | 0% | 0% | 0 | 0.9 mm | 1.2 mm | 0.7 mm | 0%
4 | Cc1c(CCC(=O)NCC(O)CO)c(=O)oc2cc3occ(C4CCCCC4)c3cc12 (stereo not drawn) [IJ, 3-{6-cyclohexyl-4-methyl-2-oxo-2H-furo[3,2-g]chromen-3-yl}-N-(2,3-dihydroxypropyl)propanamide] | 4% | 456 copies per reaction | 0 copies per reaction | 18 copies per reaction | 46 copies per reaction | 5840 copies per reaction | 3% | 24 | 18 | 1% | 2% | 4 | 1.5 mm | 2.5 mm | 1.5 mm | 2%
5 | O=C(c1ccc(OC2CCN(CC(O)CO)CC2)cc1)N1CCCC1 (stereo not drawn) [IVI, 3-(4-{4-[(pyrrolidin-1-yl)carbonyl]phenoxy}piperidin-1-yl)propane-1,2-diol] | 0% | 456 copies per reaction | 4 copies per reaction | 2 copies per reaction | 56 copies per reaction | 2547 copies per reaction | 7% | 0 | 3 | 3% | 1% | 0 | 0.3 mm | 0.8 mm | 1.2 mm | 0%
6 | O=C(c1cnc(N2CCN(n3cccc3)CC2)nc1)N1CC2CC(O)C(O)CC2C1 (stereo not drawn) [IIIK, 2-({2-[4-(1H-pyrrol-1-yl)piperazin-1-yl]pyrimidin-5-yl}carbonyl)-octahydro-1H-isoindole-5,6-diol] | 0% | 635 copies per reaction | 0 copies per reaction | 3 copies per reaction | 65 copies per reaction | 8420 copies per reaction | 8% | 14 | 0 | 0% | 2% | 0 | 0.9 mm | 0.8 mm | 0.5 mm | 1%
7 | Cc1c2c(oc(=O)c1CC(=O)NCC(O)CO)C=CC1C(C3CCCC3)=COC21 (stereo not drawn) [IIK, 2-{5-cyclopentyl-13-methyl-11-oxo-3,10-dioxatricyclo[7.4.0.0^{2,6}]trideca-1(9),4,7,12-tetraen-12-yl}-N-(2,3-dihydroxypropyl)acetamide] | 0% | 578 copies per reaction | 8 copies per reaction | 0 copies per reaction | 78 copies per reaction | 2365 copies per reaction | 8% | 14 | 0 | 0% | 2% | 0 | 0.3 mm | 0.8 mm | 1.2 mm | 1%
8 | O=C(CC1COc2ccc(C(=O)Nn3cccc3)cc2N1)NC(CO)CO (stereo not drawn) [VK, 3-{[(1,3-dihydroxypropan-2-yl)carbamoyl]methyl}-N-(1H-pyrrol-1-yl)-3,4-dihydro-2H-1,4-benzoxazine-6-carboxamide] | 0% | 435 copies per reaction | 0 copies per reaction | 0 copies per reaction | 45 copies per reaction | 2547 copies per reaction | 7% | 0 | 0 | 0% | 0% | 0 | 2.0 mm | 1.6 mm | 1.1 mm | 0%
9 | Cc1c2c(oc(=O)c1CC(=O)NCC(O)CO)C=CC1C(c3ccccc3)=COC21 (stereo not drawn) [III, N-(2,3-dihydroxypropyl)-2-{13-methyl-11-oxo-5-phenyl-3,10-dioxatricyclo[7.4.0.0^{2,6}]trideca-1(9),4,7,12-tetraen-12-yl}acetamide] | 3% | 456 copies per reaction | 0 copies per reaction | 1 copies per reaction | 56 copies per reaction | 3654 copies per reaction | 2% | 1 | 2 | 2% | 2% | 3 | 1.5 mm | 0.8 mm | 2.4 mm | 1%
